Experimental data: BindingDB's records for doi:10.1016/0960-894X(96)00356-3 (1996)
pKi: −log10 of the molar value.

Target: Tissue alpha-L-fucosidase (Bos taurus)
Experiment: Compound was tested for the inhibitory activity against alpha-L-fucosidase from bovine epididymis

**Q.** With CC1SC(Oc2ccc([N+](=O)[O-])cc2)C(O)C(O)C1O [(3R,4S,5S)-2-Methyl-6-(4-nitro-phenoxy)-tetrahydro-thiopyran-3,4,5-triol] as the compound, how does the pKi read?
**A.** The pKi was 3.93.

**Q.** COC1SC(C)C(O)C(O)C1O [(3S,4S,5R)-2-Methoxy-6-methyl-tetrahydro-thiopyran-3,4,5-triol] was tested. Which pKi did it give?
**A.** Its pKi is 3.16.

**Q.** With CSC1SC(C)C(O)C(O)C1O [(3R,4S,5S)-2-Methyl-6-methylsulfanyl-tetrahydro-thiopyran-3,4,5-triol] as the compound, how does the pKi read?
**A.** Its pKi is 2.64.

**Q.** How did the pKi turn out when CC1SC(OP(=O)(O)OCc2ccccc2)C(O)C(O)C1O (stereo unspecified) [Sodium; benzyl 3,4,5-trihydroxy-6-methyltetrahydro-2H-thiopyran-2-yl hydrogen phosphate] was run?
**A.** Its pKi is 4.48.

**Q.** CC1SC(Sc2ccc([N+](=O)[O-])cc2)C(O)[C@H](O)C1O (stereo partly drawn) [(R)-2-Methyl-6-(4-nitro-phenylsulfanyl)-tetrahydro-thiopyran-3,4,5-triol] was tested. Which pKi did it give?
**A.** Its pKi is 5.48.

**Q.** With CC1SC(OP(=O)(O)O)C(O)C(O)C1O [Sodium; Phosphoric acid mono-((3S,4S,5R)-3,4,5-trihydroxy-6-methyl-tetrahydro-thiopyran-2-yl) ester] as the compound, how does the pKi read?
**A.** Its pKi is 3.39.
